Source: publication PMC10778824, “New Chalcone Derivatives Containing 2,4-Dichlorobenzenesulfonamide Moiety with Anticancer and Antioxidant Properties” (International Journal of Molecular Sciences, 2023)

Tests used:
[1] = DPPH radical scavenging assay; settings: concentration of 800 µg/mL
Method: The DPPH radical scavenging assay of samples (ligands or complexes) was performed with ascorbic acid as a standard. Different concentrations of chalcone derivatives, dissolved in DMSO, were mixed with the same amount of 0.06 mM DPPH methanolic solution and incubated at room temperature in the dark for 30 min. The absorbance was analyzed at λ = 517 nm using a 96-well microplate reader (Epoch, BioTek System, Winooski, VT, USA). The control was composed of DPPH and DMSO. DPPH inhibition was calculated according to the following Formula (2):DPPH Inhibition (%) = [(Acontrol − Asample)/Acontrol] × 100%(2)

[2] = system: AGS cells; test: MitoPotential assay (mitochondrial membrane depolarization); format: cell-based, human; settings: 10 µg/mL, 5 h
Method: The AGS cells were seeded in a 12-well plate (1 × 10^5 cells/well) and incubated with compound 5 at concentrations of 1, 5, and 10 µg/mL; oxaliplatin at the concentration of 40 µg/mL; and DMSO (0.2%, v/v). After 5 h of exposure, the cells were stained with the Muse MitoPotential Assay Kit (Merck Millipore, Burlington, MA, USA) and analyzed with the Muse Cell Analyzer (Merck Millipore, Burlington, MA, USA). The percentage of depolarized live and dead cells was estimated in the experiments, which were independently repeated three times.

[3] = system: Escherichia coli ATCC8739; test: MIC determination; format: cell-based; settings: 37 °C, 48 h
Method: (§1) The MIC determinations for Staphylococcus epidermidis ATCC14990, Staphylococcus aureus ATCC6538, Enterococcus faecalis ATCC51299, Klebsiella pneumoniae ATCC13883, Escherichia coli ATCC8739, Salmonella enterica ATCC13076, Helicobacter pylori ATCC43504, Campylobacter jejuni ZMF, Campylobacter coli ZMF, Bacillus cereus PCM 1948,2019 (ATCC11778), and Listeria monocytogenes PCM2191 were performed based on the methodology described by Krauze-Baranowska et al.. The procedure for H. pylori was used in the experiments with Campylobacter strains, and the procedure for B. subtilis was used in the experiments with L. monocytogenes and B. cereus. The tested samples were dissolved in DMSO and diluted with water (concentration of approximately 500 μg/mL). The solutions were diluted geometrically by transferring the mixture/dilution (100 μL) from the first to the twelfth well of the microtiter plate. The final concentrations of samples used for antimicrobial effects ranged from 500 to 0.006 µg/mL. Ampicillin was used as a reference compound in the concentration range of 128 to 0.0625 µg/mL. The tests were incubated at 37 °C for 48 h. The diluent concentration had no effect on the activity of the tested compounds. All experiments were performed in triplicate.

[4] = system: Salmonella enterica ATCC13076; test: MIC determination; format: cell-based; settings: 37 °C, 48 h
Method: as §1

[5] = system: Klebsiella pneumoniae ATCC13883; test: MIC determination; format: cell-based; settings: 37 °C, 48 h
Method: as §1

[6] = system: Staphylococcus epidermidis ATCC14990; test: MIC determination; format: cell-based; settings: 37 °C, 48 h
Method: as §1

[7] = system: Campylobacter jejuni ZMF; test: MIC determination; format: cell-based; settings: 37 °C, 48 h
Method: as §1

[8] = system: Staphylococcus aureus ATCC6538; test: MIC determination; format: cell-based; settings: 37 °C, 48 h
Method: as §1

[9] = system: Listeria monocytogenes PCM2191; test: MIC determination; format: cell-based; settings: 37 °C, 48 h
Method: as §1

[10] = system: Campylobacter coli ZMF; test: MIC determination; format: cell-based; settings: 37 °C, 48 h
Method: as §1

[11] = system: Helicobacter pylori ATCC43504; test: MIC determination; format: cell-based; settings: 37 °C, 48 h
Method: as §1

[12] = system: Enterococcus faecalis ATCC51299; test: MIC determination; format: cell-based; settings: 37 °C, 48 h
Method: as §1

[13] = system: Bacillus cereus PCM 1948,2019 (ATCC11778); test: MIC determination; format: cell-based; settings: 37 °C, 48 h
Method: as §1

[14] = system: caspase-9; test: Caspase-Glo 9 activity assay in AGS cells; format: cell-based, human; settings: 24 h, relative to DMSO control
Method: The AGS cells were seeded in a 96-well plate (5 × 10^3 cells/well) and treated with compound 5 at concentrations of 1, 5, 7, and 10 µg/mL for 24 h; oxaliplatin at the concentration of 20 µg/mL; and DMSO (1%, v/v). The cells were then treated with reagents from Caspase-Glo 8 Assay or Caspase-Glo 9 Assay (Promega, Madison, WI, USA) and measured with the luminometer Glomax Multi + Detection System (Promega, Madison, WI, USA). The experiments were performed in two independent repeats in three repetitions.

[15] = system: gastric adenocarcinoma AGS; test: MTT assay, AGS cells; format: cell-based, human
Method: The human gastric adenocarcinoma AGS, cervical cancer HeLa, and acute promyelocytic leukemia HL-60 cells were obtained from the American Type Culture Collection (ATCC, Manassas, VA, USA). Human neonatal fibroblasts were obtained from LGC Standards (Luckenwalde, Germany). The HeLa and AGS lines were cultured in Dulbecco’s modified Eagle’s medium (DMEM) and DMEM/F12 medium, respectively. The HL-60 line was maintained in RPMI-1640 medium. Fibroblasts were cultured in Fibroblast Growth Medium with Supplement Mix. All the media were supplemented with 100 units/mL of penicillin, 100 µg/mL of streptomycin, and 10% (v/v) fetal bovine serum (FBS) (Merck Millipore, Burlington, MA, USA). The cells were incubated at 37 °C and 5% CO2.
To estimate the cytotoxic effect of the five compounds (4–8), MTT (3-(4,5-dimethylthiazol-2-yl)-2,5-diphenyltetrazolium bromide) assay was used. Oxaliplatin was used as a positive control in this test. All the cell lines were seeded in 96-well plates at a density of 5 × 10^3 cells/well and treated for 24 h with the compounds at concentrations of 0.5–40 µg/mL. Oxaliplatin was tested in the range of 20–400 µg/mL (50–1000 µM). After treatment, the cells were incubated with MTT (0.5 mg/mL; Merck Millipore, Burlington, MA, USA) for 3 h. Then, DMSO was used to dissolve formazan crystals, and the absorbance of the formazan solution was measured with a plate reader (Epoch, BioTek Instruments, Santa Clara, CA, USA). All the results (±standard deviation (SD)) were obtained from six repetitions in at least two independent experiments. The data are expressed as IC50 values (µg/mL).

MIC [3]: > 500 µg/mL | MIC [4]: > 500 µg/mL | MIC [5]: > 500 µg/mL | MIC [6]: > 500 µg/mL | MIC [7]: > 500 µg/mL | MIC [8]: > 500 µg/mL | MIC [9]: > 500 µg/mL | MIC [10]: > 500 µg/mL | MIC [11]: > 500 µg/mL | MIC [12]: > 500 µg/mL | MIC [13]: > 500 µg/mL | IC50 ([15]; Homo sapiens, AGS, 24 h, MTT, 24 h treatment): < 1 µg/mL
SMILES: Cc1cc(S(=O)(=O)Nc2ccc(C(=O)/C=C/c3ccc(Br)cc3)cc2)c(Cl)cc1Cl [Compound 5, (E)-N-{4-[3-(4-Bromophenyl)acryloyl]phenyl}-2,4-Dichloro-5-Methylbenzenesulfonamide]
% of DPPH radical inhibition [1]: 30.18 ± 0.23% | depolarized/dead cells [2]: 32.71% ± 3.50% | depolarized/live cells [2]: 34.20% ± 2.57% | caspase-9 relative activity ([14]; 1 µg/mL): 0.85 ± 0.03 | caspase-9 relative activity ([14]; 5 µg/mL): 4.54 ± 0.20 | caspase-9 relative activity ([14]; 7 µg/mL): 4.50 ± 0.14 | caspase-9 relative activity ([14]; 10 µg/mL): 3.81 ± 0.32 | selectivity index AGS ([15]; SI = IC50 noncancer cells/IC50 cancer cells, in relation to human neonatal fibroblasts): 28.75
